The source of these data is patent US20220409573A1, “Hippocampus Regeneration And Memory Recovery” (INNOBIOSCIENCE, LLC, priority 2021, published 2022).

One experiment concerns HEK293T cells. In words: TOP/FOP flash luciferase reporter assay. The class given is cell-based. How it is done: Luciferase Assay. 150,000 HEK293T cells were seeded in triplicate per condition and kept for 24 hours at 37° C. with 5% CO2. The cultures were transfected with TOPflash or FOPflash (400 ng), which are firefly-luciferase reporter DNA constructs (Milipore), using LipofectAMINE 2000 (Invitrogen). To control for transfection pRL-TK (10 ng) was included in all transfections. […] Values were normalized by the renilla value from the same well. To statistically compare treatments ANOVA was used.
In general terms: A reporter such as luciferase makes a cellular process visible.

For the next experiment, the system named is Wnt target genes. In words: PCR array of Wnt target genes in hippocampal neurons. The class given is cell-based, rat. The protocol: Primary culture of rat hippocampal neurons. […] PCR-ARRAY. RNA from hippocampal neurons was extracted using Trizol. Quantification and purity of RNA preparations were checked by absorbance using Nanodrop ND-2000. Only preparations with a 260/280 nm ratio≥1.8, a 260/230 nm ratio ≥1,7 and no sign of RNA degradations, verified by agarose gel electrophoresis with Gel Red TM were used. Genomic DNA was degraded. Using RT2First-Strand cDNA Synthesis kit (SuperArray), 1 μg total RNA was reverse transcribed and then real-time PCR was performed by adding cDNA directly to PCR Master Mix, containing SYBR Green and ROX. The mixtures were then aliquoted into a 96-well PCR array plates, which profiles the expression of 84 Wnt target genes from rat. The PCR was run on ABI StepOnePlus, with 1 cycle of 10 min at 95° C. followed by 40 cycles of 15 s at 95° C. and 1 min at 60° C.
Treatment of neuronal cultures. Primary hippocampal cultures of neurons 14 DIV were washed twice in neurobasal medium and maintained for 1 hour.

For experiment [1], the system named is CA3-CA1 connections in hippocampal slices. In words: Electrophysiology in Wt hippocampal slices (fEPSP, PPF, LTP, LTD). The class given is cell-based, mice. The note with it: hippocampal slices; 6-BIO 10 nM. The protocol: Slice Preparation and Electrophysiology. […] Slices were transferred to an experimental chamber (2 ml), superfused (3 ml/min, at 20-22° C.) with gassed ACSF and visualized by trans-illumination with a binocular microscope (MSZ-10, Nikon, Melville, N.Y.). To evoke field excitatory postsynaptic potentials (fEPSPs), we stimulate with bipolar concentric electrodes (Platinum/Iridium, 125 μm OD diameter, FHC Inc., Bowdoin, Me.) generated by a stimulator (Axon 700b, Molecular Devices, Sunnyvale, Calif.) and connected to an isolation unit (Isoflex, AMPI, Jerusalem, Israel) . The stimulation was in the Stratum Radiatum within 100-200 μm from the recording site. The paired pulse facilitation index was calculated by ((R2−R1)/R1), where R1 and R2 were the peak amplitudes of the first and second fEPSP respectively. To generate LTP we used Theta Burst Stimulation (TBS) consisting of 5 trains of stimulus with an inter-train interval of 20 s. Each train consisted of 10 bursts at 5 Hz and each burst having 4 pulses at 100 Hz. To generate LTD we used Low Frequency Stimulation (LFS) consisting in 900 paired pulses at 1 Hz. Recordings were filtered at 2.0-3.0 kHz, sampled at 4.0 kHz using an A/D converter, and stored with pClamp 10 (Molecular Devices). Evoked postsynaptic responses were analyzed off-line, using an analysis software (pClampfit, Molecular Devices), which allowed visual detection of events, computing only those events that exceeded and arbitrary threshold.

Experiment [2] deals with Wnt/β-catenin pathway in hippocampal slices. In words: β-catenin, GSK-3β and Dvl-3 western blot in hippocampal slices of wild-type mice. The class given is cell-based. The note with it: for time at which total levels of β-catenin increased: 5 μM ANDRO, Wnt3a conditioned medium or 10 nM 6-BIO, up to 1 h. The protocol: Slice preparation. […] Transverse slices (250-300 μm) from the dorsal hippocampus were cut under oxygen-saturated cold artificial cerebrospinal fluid using a Vibroslice microtome (VSL, World Precision Instruments, Inc WPI, Sarasota, Fla.). After obtained, slices were incubated in ACSF for at least than one hour at room temperature, in order to stabilize activity.
Immunoblotting. […] Briefly, tissues were homogenized in RIPA buffer (10 mM Tris-Cl, pH 7.4, EDTA 5 mM, 1% NP-40, 1% sodium deoxycholate, and 1% SDS) supplemented with a protease inhibitor mixture (1 mM PMSF, 2 μg/mL aprotinin, 1 μg/mL pepstatin and 10 μg/mL benzamidine) and phosphatase inhibitors (25 mMNaF, 100 mM Na3VO4, 1 mM EDTA and 30 μM Na4P207) using a Potter homogenizator and then passed sequentially through different caliber syringes. […] Protein concentration was determined using the BCA Protein Assay Kit (Pierce). […] The reactions were followed by incubation with anti-mouse, anti-goat or anti-rabbit IgG peroxidase conjugated (Pierce, Rockford, Ill.) and developed using an ECL kit (Western Lightning Plus ECL, PerkinElmer).

The mark [3] stands for this setting: 9 h treatment, of the 86 genes analyzed.

As for `O=C1Nc2cc(Br)ccc2/C1=C1/Nc2ccccc2/C1=N\O` [6-BIO, 6-bromoindirubin-3′-oxime, reference compound], in the experiment with HEK293T cells (ANDRO 10 μM or 6-BIO 10 nM, 24 h), the TOPflash reporter activity entry is “significant increase”. For the same compound, in the experiment with HEK293T cells (TOPflash, HEK293T), the “increase of luciferase reporter over control” value was around 6 fold. In the experiment with Wnt target genes, the Cdh-1 gene expression result is “does not”. For the same compound, in the experiment on Wnt target genes (setting [3]), the “number of Wnt target genes specifically modulated” value is on record as 4 genes; the “number of changed Wnt target genes shared by ANDRO and 6-BIO” value stood at 4 genes. In addition, the “induction of LTD (fEPSP slope after LFS)” value in experiment [1] is listed as “complete inhibition of the induction of LTD”. Besides, in experiment [2], the “time at which total levels of β-catenin increased” value worked out at 15 min. Moreover, the “rate of increase of GSK3β Ser-9 and decrease of Tyr-216 phosphorylation” value in experiment [2] (compared to Wnt-3a treatment) is recorded as “faster”.
Regarding Wnt-3a, the “time at which total levels of β-catenin increased” value in experiment [2] is reported as 45 min. Also, the “inhibition of β-catenin accumulation by Wnt antagonists sFRP and Dkk-1” value in experiment [2] (antagonists 15 min before 5 μM ANDRO or Wnt3a conditioned medium for 1 h) is reported as “able to inhibit the accumulation of β-catenin in the presence of Wnt3a”.
